# Patent publication US5990078A, “Means of increasing estrogen receptor levels in neural tissue” (The Trustees of Columbia University in the City of New York, priority 1996, dated 1999)
# Entries after “also recorded” stand apart in the source; their conditions may differ.
# How the values were obtained:
# p75^NGFR mRNA [1] = conditions: adult female rat DRG neurons in vivo [90]; cited from earlier work
# trkA mRNA = conditions: adult female rat DRG neurons in vivo [90]; listed as estrogen; cited from earlier work
# p75^NGFR mRNA [2] = test: Northern blot analysis of p75NGFR mRNA in PC12 cells; type: cell-based, rat; conditions: NGF-treated PC12 cells
# Procedure: PC12 cells were cultured on collagen-coated coverslips or tissue culture dishes in phenol red-free RPMI 1640 (Gibco BRL) nutrient medium supplemented with 10% (heat-inactivated) gelded (steroid-deficient) horse serum (JRH Biological), according to a modification of standard procedures. In these experiments, fetal calf serum, which contains physiologic levels of estrogen, (32 pg/ml) was not used.
# Total RNA, prepared by a modification of the Chomczynski and Sacchi method, was size-fractionated (10-20 μg/lane) on a 1.2% agarose-18% formaldehyde gel and capillary-transferred to nylon membrane (Hybond-N; Amersham). Filters were prehybridized (4-18 h) and hybridized (36-40 h) at 42° C. in 50% Formamide, 3× SSC, 0.1M Tris, 5× Denhardt's and 10% Dextran Sulfate. Probes were labeled with [α-^32 P]-dCTP by the random priming procedure (Random Priming kit, Boehringer Mannheim). trkA mRNA was identified by hybridization with pDM97, a 450 bp trkA-specific probe corresponding to the extracellular and transmembrane domains of the trkA gene [67; gift of L. F. Parada, NCI-FCRDC]. p75^NGFR was probed by hybridization with p5b, a 2 Kb probe corresponding to the extracellular domain of the p75^NGFR gene. Blots were washed first in 0.2×SSC and 0.5% SDS briefly at room temperature and then for 2 h at 60° C., with frequent changes of wash buffer. Filters were then exposed to film (Kodak X-Omat) between intensifying screens and stored at -70° C. for 1-4 days before developing.
# Using a standard densitometry package (Jandel Scientific), optical density measurements were obtained from X-ray film. trkA and p75^NGFR transcript densities were normalized to an internal control to account for variation in the amount of RNA loaded.
# Total RNA was analyzed by Northern blot analyses, using ^32 P-labeled cDNA probes for trkA and p75^NGFR.
# PC12 cells = test: Morphology / neurite differentiation of PC12 cells; type: cell-based, rat; conditions: estrogen exposure
# ERKs = test: In-gel kinase assay of ERKs with MBP as substrate, cortical explants; type: cell-based
# Procedure: (§1) Estrogen and the neurotrophins have important roles in the developing and adult central nervous system (CNS). […] The hypothesis that estrogen/neurotrophin receptor co-expression leads to reciprocal regulation at the level of signal transduction, through cross-coupling of converging estrogen and neurotrophin signaling pathways whose end-points in the nucleus may be the very same genes was tested. Postnatal day 2 cerebral cortex was maintained as organotypic explants in roller tube culture for 7 days.
# trk receptors = test: Tyrosine phosphorylation of the trk receptors, cortical explants; type: cell-based
# Procedure: as §1
# PC12-E2 cells = test: Morphological study of neurite growth in PC12-E2 cells; type: cell-based
# Description: (§2) It has been previously reported that wild-type, differentiated PC12 pheochromocytoma cells express very low levels of estrogen receptors. Here it is reported that a PC12 cell variant, PC12-E2 (Wu, Bradshaw, J. Cell Physiol. 164:1995), is estrogen responsive and expresses high estrogen receptor level (≈50% of the levels observed in estrogen receptor over-expressing MCF-7 cells). Moreover, although tyrosine phosphorylation of the estrogen receptor appeared to be expressed constitutively, these cells responded to added estrogen. PC12-E2 responsiveness to estrogen was determined morphologically and by measuring estradiol-induced ERK activation. […] Preliminary co-precipitation experiments show an association between src and estrogen receptor, src with MEK (MAP Kinase/ERK-activating Kinase), and MEK with B-raf, MEK, which phosphorylates the ERKs on tyrosine residues, is known to exist as a complex consisting of at least hsp90 and B-raf.
# ERKs 1 and 2 [3] = test: ERK activation in PC12-E2 cells; type: cell-based
# Description: as §2
# ERKs 1 and 2 [4] = test: Tyrosine phosphorylation of ERKs 1 and 2 in cerebral cortical explants; type: cell-based; conditions: P2 cortical explants
# Procedure: as §1
# ERK = ERK stimulation in wild-type, differentiated PC12 cells; type: cell-based
# estrogen receptor mRNA [5] = test: Isotopic in situ hybridization of estrogen receptor mRNA in cortical explant cultures; type: cell-based, rat; conditions: cortical explants, hrNGF 100 ng/mL
# Description: (§3) Time-pregnant rats (Sprague-Dawley) were obtained from Zivic (Miller, Pa.). Organotypic explant cultures were obtained from postnatal day (P) 2 rat brains (P1=day of birth) of both sexes. Brains were slice coronally into 360-μm thick sections using a brain slicer (Toran-Allerand, 1990). A total of four coronal sections from the periseptal region were isolated and dissected into four pairs of hemicoronal cortical [cingulate and neocortex, FIG. 6(a)] and basal forebrain [septum, nuclei of the diagonal band of Broca and ventral pallidum, FIG. 6(b)] sections. […]
# Estrogen receptor mRNA was detected in cerebral cortical cultures in using […] oligonucleotide probes complementary to a sequence within rat estrogen receptor mRNA coding for hormone binding domain (Miranda et al., 1993b, 1994; Miranda and Toran-Allerand, 1992; Toran-Allerand et al., 1992b). […] Isotopically (^35 S)-labeled hybrids were detected in whole explant cultures by desiccating the cultures and apposing them to autoradiographic film (Kodak X-omat). The intensity of mRNA expression was quantified as the density of film exposure over the explant divided by the density over background using a standard morphometrics package (Jandel Scientific).
# estrogen receptor mRNA [6] = test: Semiquantitative RT-PCR of estrogen receptor mRNA in cortical and basal forebrain explant cultures; type: cell-based, rat; conditions: cortical and basal forebrain explants, hrNGF 100 ng/mL
# Description: Time-pregnant rats (Sprague-Dawley) were obtained from Zivic (Miller, Pa.). Organotypic explant cultures were obtained from postnatal day (P) 2 rat brains (P1=day of birth) of both sexes. Brains were slice coronally into 360-μm thick sections using a brain slicer (Toran-Allerand, 1990). A total of four coronal sections from the periseptal region were isolated and dissected into four pairs of hemicoronal cortical [cingulate and neocortex, FIG. 6(a)] and basal forebrain [septum, nuclei of the diagonal band of Broca and ventral pallidum, FIG. 6(b)] sections. Hemicoronal explants were maintained in roller tube assemblies (Caeser et al., 1989; Gahwiler et al., 1991), on collagen coated coverslips for 8 days in vitro, in serum supplemented (25% gelded horse serum, JRH), steroid deficient and phenol red free medium containing 50% basal medium (Eagle's), 25% Hank's balanced salt solution (HBSS), and 0.65% glucose. […] Cultures were fed 3 times a week.
# Estrogen receptor mRNA expression was assessed by semiquantitative RT-CPR, using RNA isolated from pooled cortical (two explants pooled/sample) and basal forebrain (four explants pooled/sample) cultures. PCR primers (gift of B. Schachter, Mount Sinai Hospital) were designed to amplify a 300 base pair (bp) sequence from the region coding for the ligand binding domain (Sohrabji et al., 1994b). […]
# estrogen receptor = target: T1, estrogen receptor (Rattus norvegicus, UniProt P06211); test: Modified nuclear binding assay, basal forebrain explant cultures; type: cell-based; set-up: endogenous in cells; conditions: P2 rat basal forebrain explants, 8 days in vitro, hrNGF 100 ng/mL
# T1 sequence (P06211 1-600): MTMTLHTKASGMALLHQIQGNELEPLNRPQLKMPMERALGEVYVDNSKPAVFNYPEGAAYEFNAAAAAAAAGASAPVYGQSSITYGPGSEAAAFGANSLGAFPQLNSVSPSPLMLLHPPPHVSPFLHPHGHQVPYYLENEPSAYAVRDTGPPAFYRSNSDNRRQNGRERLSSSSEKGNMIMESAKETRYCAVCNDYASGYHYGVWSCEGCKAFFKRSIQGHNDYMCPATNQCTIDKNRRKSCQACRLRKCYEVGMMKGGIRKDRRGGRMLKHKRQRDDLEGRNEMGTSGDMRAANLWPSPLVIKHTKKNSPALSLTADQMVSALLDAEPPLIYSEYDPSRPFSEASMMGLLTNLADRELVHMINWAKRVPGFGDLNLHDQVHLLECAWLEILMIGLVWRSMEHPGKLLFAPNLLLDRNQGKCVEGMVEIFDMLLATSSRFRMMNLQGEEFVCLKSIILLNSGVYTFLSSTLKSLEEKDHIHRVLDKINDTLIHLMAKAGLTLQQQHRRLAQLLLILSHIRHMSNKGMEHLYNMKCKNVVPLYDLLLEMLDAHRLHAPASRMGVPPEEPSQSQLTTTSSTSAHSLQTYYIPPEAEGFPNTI
# Description: as §3
# Nuclear receptor binding sites were identified using previously published protocols (Sohrabji et al., 1994a,b) and were standardized for this experiment using both MCF-7 cells and hypothalamic tissue. […] Radioactivity was eluted from nuclear pellets with 95% ethanol (moxestrol is completely soluble in >50% ethanol) and the radioactivity counted in a liquid scintillation counter. […] Specific binding was determined as the difference between total binding and non-specific binding (in the presence of an unlabeled competing ligand) and the data expressed as femtomoles of specifically bound [^3 H] -moxestrol/mg DNA. […]
Density of estrogen binding sites (estrogen receptor),Molecule,p75NGFR mRNA (p75^NGFR mRNA [1]),Increase in trkA mRNA (trkA mRNA),p75NGFR mRNA level (p75^NGFR mRNA [2]; 1 day after estrogen treatment),p75NGFR mRNA level (p75^NGFR mRNA [2]; 3 days of estrogen exposure),"p75NGFR mRNA level (p75^NGFR mRNA [2]; 3 days of estrogen exposure, 4320 min)",p75NGFR mRNA level (p75^NGFR mRNA [2]; 7 days of estrogen treatment),Effect on morphology / neurite differentiation (PC12 cells),Activity of phosphorylated ERKs in phosphorylating MBP vs untreated controls (ERKs),Tyrosine phosphorylation of the trk receptors (trk receptors),Neurite outgrowth (PC12-E2 cells),Time to tyrosine phosphorylation of ERKs 1 and 2 (ERKs 1 and 2 [3]) [min],Persistence of tyrosine phosphorylation of the ERKs (ERKs 1 and 2 [4]),Time of maximal tyrosine phosphorylation of the ERKs (ERKs 1 and 2 [4]) [min],Onset of tyrosine phosphorylation of the ERKs (ERKs 1 and 2 [4]; 24 hrs estrogen and neurotrophin deprivation) [min],Estradiol-induced ERK stimulation (ERK),"Estrogen receptor mRNA, density of hybridization signal (estrogen receptor mRNA [5])",Estrogen receptor mRNA (normalized to cyclophilin mRNA) vs control (estrogen receptor mRNA [6])
,"C[C@]12CC[C@@H]3c4ccc(O)cc4CC[C@H]3[C@@H]1CC[C@@H]2O [estradiol, 17-β estradiol]",transient decrease,two to three-fold,below basal levels,decreased by half,approximately 50 % of baseline,indistinguishable from basal levels; also recorded: no different from basal levels,no readily visible effects; also recorded: did not appear to influence visibly,much more active,induced tyrosine phosphorylation,little effect,≤ 15,at least 4 hrs.,30,≤ 5,no estradiol-induced ERK stimulation was observed,,
did not significantly alter and not,"hrNGF: human recombinant NGF (gift of Louis Burton, Genetech)",,,,,,,,,,,,,,,,No alterations; also recorded: did not lead to an alteration,no different; also recorded: did not lead to an alteration
